Data reported in PMC7822874, “Chemoprotective antimalarials identified through quantitative high-throughput screening of Plasmodium blood and liver stage parasites” (Scientific Reports, 2021).

Tested on: Plasmodium falciparum Dd2 asexual blood stage parasites
Assay: microbe, parasite or virus in culture
Design: species or system Plasmodium falciparum Dd2 in human erythrocytes; single determination (one 11-point concentration-response curve)
Details: Plasmodium falciparum, DD2, Erythrocyte, 72 h; read-out: AC50

Row | Structure (SMILES) | AC50 [µM]
1 | CSc1nnc(-c2cc3ccccc3cc2O)n1C [MLS000035069-01] | 7.5
2 | COC[C@H]1CCCN1[C@@H]1[C@H](O)[C@H](CO)O[C@@H]1CN(Cc1cccc(Cl)c1)Cc1cccc(Cl)c1 [NCGC00391669-01] | 10.6
3 | Cc1ccc(-c2nc3n(n2)C(c2ccccc2Cl)C=C(c2ccc(Cl)cc2)N3)cc1 (stereo not shown) [NCGC00105122-01] | 9.44
4 | CCN(C(=O)CSc1nc(-c2ccc(C(C)C)cc2)no1)c1ccccc1 [NCGC00127904-01] | 0.944
5 | O=c1cc(-c2ccccc2)c2ccc3c(c2o1)CN(Cc1ccccc1)CO3 [NCGC00116340-01] | 2.66
6 | COc1ccccc1N1CCN(C(c2cc3ccc(C)cc3nc2O)c2nnnn2C2CCCC2)CC1 (stereo not shown) [MLS000077380-01] | 7.5
7 | CN1CCCC1CCNS(=O)(=O)c1ccc(Br)cc1 (stereo not shown) [MLS000549971-01] | 5.96
8 | CCN1CCN(C(=O)c2ccc(-c3nnc4ccc(NC(=O)C5CC5)cn34)cc2)CC1 [NCGC00429842-01] | 6.68
9 | COc1ccc2nc3oc(C(=O)N4CC(C)CC(C)C4)cc3cc2c1 (stereo not shown) [MLS000912759-01] | 8.41
10 | CCOC(=O)c1c(CSC(=N)N)n(-c2ccc(C)cc2)c2cc(Br)c(OC(C)=O)cc12 [MLS001304955-01] | 5.96
11 | CCCN1CCC(NCc2cn(C)nc2-c2ccc(Oc3ccccc3)cc2)CC1 [MLS000732385-01] | 4.73
12 | O=C(c1ccccc1)N1CCC(Cc2nnc(-c3ccncc3)[nH]2)CC1 [NCGC00458326-01] | 15
13 | O=S(=O)(c1ccc(F)cc1)N1CCN(/C(S)=N/CCc2ccccc2)CC1 [MLS001035761-01] | 5.96
14 | Cc1cc(Nc2cc(Cl)cc(Cl)c2)nc(N)n1 [MLS000861564-01] | 6.68
15 | COc1cc(Br)c(C(C)NC(=O)c2cccc(Br)c2)cc1OC (stereo not shown) [MLS000325399-01] | 2.11
16 | O=C(NCc1cccs1)c1nc(-c2cccc(C(F)(F)F)c2)c2cnccn12 [NCGC00476439-01] | 9.44
17 | COc1ccccc1C1CC(c2ccccc2)=NN1C(=O)c1ccccc1 (stereo not shown) [MLS001197331-01] | 2.37
18 | O=C(NCC1CCCCC1)C12CN(Cc3ccccc3)CC1C(c1cccc([N+](=O)[O-])c1)=NO2 (stereo not shown) [MLS000561441-01] | 6.68
19 | COc1cccc(NC(=O)C2(C)CN(C)Cc3ccc(N4CCOCC4)nc32)c1 (stereo not shown) [NCGC00414578-01] | 3.85
20 | O=C(NCC(c1ccco1)N1CCCC1)c1ccc(Cl)cc1 (stereo not shown) [MLS000570686-01] | 8.41
21 | COc1ccccc1-c1n[nH]c2ncc(-c3cnn(C)c3)nc12 [NCGC00419074-01] | 17.2
22 | N#CC1CCN(C(=O)c2nc(-c3cccc(C(F)(F)F)c3)c3cnccn23)CC1 [NCGC00476479-01] | 16.8
23 | CCOC(=O)C1(Cc2ccc(Cl)cc2)CCN(Cc2ccc(OC)cc2O)CC1 [NCGC00428386-01] | 0.188
24 | CCN1CCN(C(=O)c2c(C)nn(-c3ccc(F)cc3)c2-n2cccc2)CC1 [NCGC00125054-01] | 9.44
25 | COc1cc2c(cc1OC)C(COc1ccc3c(C)cc(=O)oc3c1)N(C(=O)Cc1ccc(F)cc1)CC2 (stereo not shown) [NCGC00104919-01] | 5.96
26 | CC(C)Cn1c(-c2ccco2)nc2c(c(=O)c3ccccc3n2C)c1=O [MLS000331990-01] | 9.44
27 | CC1CC(C)CN(C(=O)c2ccc3ccccc3c2)C1 (stereo not shown) [MLS001161774-01] | 2.37

Row | Structure (SMILES) | AC50 [µM]
28 | COc1cc2c(cc1OC1CCCC1)NC(=O)C21CCN(Cc2nccs2)CC1 [NCGC00416850-01] | 19.3
29 | CCOC(=O)c1c(C)[nH]c(C)c1[S+](=O)([O-])N1CCCC(C(=O)N2CCN(c3cccc(C)c3C)CC2)C1 (stereo not shown) [NCGC00138103-01] | 1.33
30 | CCOc1ccc(CN(CCc2ccc3c(c2)OCO3)Cc2cc(OC)ccc2O)cc1 [NCGC00101752-01] | 0.668
31 | Cc1ccc(-c2noc(-c3ccccc3NC(=O)C3CC(=O)N(c4ccc(C)cc4)C3)n2)cc1 (stereo not shown) [NCGC00119552-01] | 4.22
32 | COc1ccccc1N1CCN(CCCNC(=O)c2cnn(-c3ccccc3Cl)c2C2CCN(C(=O)OC(C)(C)C)CC2)CC1 [NCGC00126752-01] | 2.37
33 | COc1cccc(NC(=O)Cn2cccc2-c2nc(-c3ccc(OC)c(F)c3)no2)c1 [NCGC00445448-01] | 6.68
34 | Cc1cccc(OCC(=O)NCC2(N3CCN(C)CC3)CCCCC2)c1C [NCGC00118605-01] | 6.68
35 | Cc1ccc(C)c(C(=O)N2CCC3(CC2)NC(c2ccc(Cl)cc2)=NO3)c1 [NCGC00447013-01] | 9.44
36 | Clc1ccc2c(N3CCCC3)ccnc2c1 [MLS000049600-01] | 3.76
37 | COc1ccc(C(C)NC(S)=NC2CCCC2)cc1OC (stereo not shown) [MLS000581238-01] | 6.68
38 | COc1ccc(NC(=O)c2nnn3c2CN(Cc2cccc(Cl)c2)C(=O)CC3)c(C)c1 [NCGC00415347-01] | 2.17
39 | COc1cc(NC(=O)CSc2nc(-c3ccc(C(C)C)cc3)no2)cc(OC)c1 [NCGC00127914-01] | 0.841
40 | COc1ccc(S(=O)(=O)N2CCCCCC2)cc1NC(=O)c1c2c(nc3ccccc13)CCN(Cc1ccccc1)C2 [MLS000393062-01] | 4.73
41 | CCOC(=O)c1cc2c(=O)n3ccccc3nc2n(CC(C)C)/c1=N\C(=O)COc1ccc(Cl)cc1 [NCGC00104075-01] | 10.6
42 | COc1cccc(Nc2ccc3c(n2)C(C)(C(=O)N2CCN(C)CC2)CN(C)C3)c1 (stereo not shown) [NCGC00414535-01] | 15.3
43 | O=C(Cc1ccccc1F)N1CCOc2ccc(CN3CCc4ccccc4C3)cc2C1 [NCGC00471206-01] | 13.3
44 | COc1cc(O)c(C(CCN2CCOCC2)c2ccc3c(c2)OCO3)c(OC)c1 (stereo not shown) [MLS000879477-01] | 4.22
45 | O=C(c1cccc(O)c1)N1CC=C(c2cnc3cnc(-c4ccccc4)cn23)CC1 [NCGC00414040-01] | 9.68
46 | COc1ccc(NC(=O)c2ccc(-c3nnc4ccc(NC(=O)C5CC5)cn34)cc2)cc1 [NCGC00429845-01] | 2.66
47 | COCCOc1cc(-c2noc([C@@H]3CCCN3CC3CC3)n2)ccn1 [NCGC00394865-01] | 15.3
48 | O=C(CCC1CCN(Cc2cccc3c2OCO3)CC1)NCc1cccc(C(F)(F)F)c1 [NCGC00426823-01] | 3.76
49 | COc1ccc(CN2C[C@H]3CN(Cc4c[nH]c5ccccc45)CCN3C2=O)cc1 [NCGC00392270-01] | 3.85
50 | CC1(c2ccccc2)N(Cc2cccnc2)C(=O)OC12CCN(C(=O)Cc1ccc(Cl)cc1)CC2 (stereo not shown) [NCGC00415462-01] | 13.3
51 | COc1ccc(-c2cc([C@H]3CN4CC[C@H]3C[C@@H]4CNC(=O)NC3CCCCC3)n(C)n2)cc1 [NCGC00399776-01] | 1.88
52 | Oc1ccccc1CN[C@H]1[C@H](O)[C@@H](N2CCC(Cc3ccccc3)CC2)[C@@H]2OC[C@H]1O2 [NCGC00400924-01] | 3.44
53 | O[C@]1(c2ccccc2)CCN(Cc2ccncc2)C[C@H]1N1CCCC1 [NCGC00442600-01] | 9.44
54 | COc1cc2nc(NCc3ccccc3Cl)n3nc(-c4cccnc4)nc3c2cc1OC [NCGC00112532-01] | 2.11

Row | Structure (SMILES) | AC50 [µM]
55 | CC(C)CN1C(=O)c2ccccc2C(C(=O)Nc2nccs2)C12CCCC2 (stereo not shown) [NCGC00423343-01] | 8.41
56 | O=C(c1n[nH]c2ccccc12)N1CCCC1c1nc(CCOCC2CCOCC2)no1 (stereo not shown) [NCGC00460318-01] | 9.44
57 | CC1(c2ccccc2)N(Cc2ccc(O)cc2)C(=O)OC12CCN(Cc1c[nH]c3ccccc13)CC2 (stereo not shown) [NCGC00415668-01] | 5.31
58 | CN1CCN(Cc2ccccc2Oc2ccc(C(F)(F)F)cn2)CC1 [NCGC00433787-01] | 0.531
59 | COc1ccc2cc1Nc1ccc(cc1)C[C@H](NCc1cccc(C(=O)O)c1)C(=O)N(C)[C@H](C(=O)Nc1ccccc1OCc1ccccc1)C2 [NCGC00410264-01] | 4.73
60 | CC1=C[C@@H](CNC2CC2)[C@H](C(C)C)C[C@H]1Cc1nnc(-c2ccc(C)cc2)o1 [NCGC00394380-01] | 17.2
61 | Cc1ccc(OCCSc2nc3ccc(NC(=O)c4cccs4)cc3s2)cc1 [NCGC00118830-01] | 2.99
62 | CCOC(=O)N1CCN(C(=O)c2ccc3c(c2)N(C)C(=O)/C(=C\c2ccc(OCC)c(OC)c2)S3)CC1 [MLS001030648-01] | 6.68
63 | COc1ccc(-c2nn(-c3ccc(F)cc3)c(OC(C)=O)c2-c2ccc(NC(C)=O)cc2)cc1OC [NCGC00473193-01] | 15
64 | Clc1ccc(NNc2ccnc3cc(Cl)ccc23)cc1 [MLS000537447-01] | 1.5
65 | O=C(NCC1CCCN(Cc2cccc(-c3ccco3)c2)C1)c1cccs1 (stereo not shown) [NCGC00427501-01] | 6.68
66 | O=C1CC(c2ccccc2)N(C(=O)CNC(=O)c2n[nH]c3c2CCc2ccccc2-3)CCCCCCN1 (stereo not shown) [NCGC00467449-01] | 2.99
67 | COc1ccccc1NS(=O)(=O)c1cc(NC(=O)c2cccc(S(=O)(=O)N(C)C)c2)ccc1N1CCOCC1 [MLS002162226-01] | 7.5
68 | Cn1cccc1CN1CCCC2(C1)C(NC1CCCCC1)=NC(=O)N2c1cccnc1 (stereo not shown) [NCGC00374042-01] | 5.31
69 | COc1ccc(C(=O)N2CCC3(CC2)COc2ccccc2CN3)cc1 [NCGC00477552-01] | 10.6
70 | Cc1nn(C(=N)S)c(O)c1C(c1ccccc1)C(C#N)C#N (stereo not shown) [MLS000077118-01] | 6.68
71 | O=C(C[C@@H]1CCNC[C@@H]1Cc1cc(CSc2ccccc2)on1)N1CCN(c2ccccc2)CC1 [NCGC00400854-01] | 8.41
72 | OC(COc1ccccc1CNCCc1ccccc1)CN1CCSCC1 (stereo not shown) [NCGC00427853-01] | 2.11
73 | COc1ccc(C(=O)Nc2nc3c(s2)C[C@@H]2[C@](C)(CO)[C@H](O)CC[C@@]2(C)[C@@H]3CC(=O)NCc2ccco2)cc1 [NCGC00421299-01] | 2.66
74 | COc1ccc(OC)c(NC(=O)c2cc(-c3cc(Cl)ccc3O)n[nH]2)c1 [MLS000083936-01] | 4.73
75 | O=C(Cc1ccc2c(c1)OCO2)N1CCOCC2(CN(Cc3ccccc3)C2)C1 [NCGC00418996-01] | 6.85
76 | COc1ccc(CC(=O)N2Cc3ccccc3CC3(CCCN3C)C2)cc1 (stereo not shown) [NCGC00377108-01] | 9.44
77 | CCCCCCSc1ccc([C@H]2N[C@@](Cc3ccccc3)(C(=O)OC)[C@H]3C(=O)N(CC)C(=O)[C@@H]23)cc1 [MLS001362744-01] | 3.35
78 | Cc1noc(C)c1-c1nccc2c(=O)cc(N(C)c3ccccc3)oc12 [NCGC00416678-01] | 17.2
79 | Fc1ccc(-c2ccc3ncc(Nc4ccnc(N5CCOCC5)c4)n3n2)cc1 [NCGC00412558-01] | 1.72
